Measurements published in patent US5712161A, “Method for culturing animal cells in collagen drops on a support” (Nitta Gelatin Inc., priority 1993, dated 1998).
Like-named read-outs stand apart in the source and are kept apart here.

Tests used:
[1] = system: rabbit-oriented vascular endothelial cells; assay: Proliferation shape of vascular endothelial cells around globular collagen gel containing TGF-β; assay type: cell-based
Description: The procedure of Example 23 was repealed, but TGF-β (a transformation growth factor) was substituted for the cells of the group A, and rabbit-oriented vascular endothelial cells for the cells of the group B, and the following modifications were made. […] In FIG. 7, the transformation growth factor 70 is contained in the globular collagen gel 20a. A collagen gel 80a in which the rabbit-oriented vascular endothelial cells 50d were embedded was placed in the layered form into the inside of the multiplate 10, such that the globular collagen gel 20a was covered with the collagen gel 80a. The test was carried out in the same way as in Example 22 except for the components as contained in each collagen gel and for the placement of the gels. In addition, the collagen gel 80a was evaluated by microscopy.
As a result, different proliferation shapes of the vascular endothelial cells were observed depending on the distance from the surface of the globular collagen gel 20a.

[2] = system: human breast cancer cells (surgical sample); conditions: primary breast cancer cells, 24 h
Protocol: (§1) The capsule, fat, etc. were removed from the tissue containing the breast cancer using scissors and forceps under aseptic conditions, and then sliced with a razor.
(§2) The live tumor cells as obtained by the above-mentioned preliminary culture and collection steps were embedded into a globular collagen gel and cultured.
(§3) The embedded culture was carried out as follows: 1 volume of 10-fold concentrated Ham's F12 culture solution (sodium bicarbonate-free) and 1 volume of a reconstituting buffer solution (50 mM NaOH solution containing 260 mM sodium bicarbonate and 200 mM-HEPES) were added to 8 volumes of Cellmatrix Type I-A (0.3% acid-soluble Type-I collagen solution: product of Nitta Gelatin Inc.); the breast cancer cells and the like as obtained in the above-mentioned preliminary culture and collection steps were added and well mixed into the resultant mixture; the final concentration was adjusted to 5×10^4 cells/ml; and the resultant mixture was kept in ice.
(§4) A 0.5-ml portion of the culture solution containing an anticancer agent was superposed on the globular collagen gel in which the cancer cells were embedded and which was obtained in the above-mentioned embedding step, and the cancer cells were allowed to be in contacted with the anticancer agent by keeping them in a 5% carbon dioxide incubator at 37° C. for 24 hours. The following six anticancer agents were used: MMC (mitomycin C), CDDP (cisplatin), VDS (vindesine), VP-16, 5-FU (5fluorouracil) and ADM (adriamycin).
(§5) Then, the culture solution containing the anticancer agent was removed by suction, 0.5 ml of a culture solution free from an anticancer agent was instead added, the resultant mixture was shaken in a 5% carbon dioxide incubator, thus washing the globular collagen gel. This procedure was repeated at least every 10 minutes for a total of 3 times, whereby the anticancer agent was removed from the globular collagen gel.
(§6) After the above-mentioned agent contact step, 0.5 ml of a culture solution was added, and the culture was effected at 37° C. in a 5% carbon dioxide incubator for 7-14 days. The culture solution was exchanged every 1-2 days.
(§7) The viability of the cells in the sample as obtained by the culture was measured.
(§8) For the measurement, an AB coloring agent was used to cause a color reaction by the reductive activity of the cells.
(§9) The AB coloring agent was added in an amount of 1/50-1/10 relative to the culture solution, and the reaction was conducted for 6 hours in a carbon dioxide incubator.
(§10) After the reaction, the culture solution was separated off, and the absorbance of the culture solution was measured using a spectrophotometer. The measurement of the absorbance was performed at 570 nm with a reference wavelength of 600 nm.

[3] = system: human breast cancer cells (surgical sample); conditions: primary breast cancer cells, 24 h; remark: listed apart in the source
Protocol: (§11) Using a surgical sample as obtained from a human breast cancer patient as the starting material, it was treated according to the order as shown in the flow sheet.
as §3
(§12) A 0.5-ml portion of the culture solution containing an anticancer agent was superposed on the globular collagen gel in which the cancer cells were embedded and which was obtained in the above-mentioned embedding step, and the cancer cells were allowed to be in contacted with the anticancer agent by keeping them in a 5% carbon dioxide incubator at 37° C. for 24 hours.
as §5, §6, §8, §9
(§13) The same culture solution was also measured using a fluorospectrophotometer, with an excitatory wavelength of 560 nm and a detection wavelength of 590 nm.

[4] = system: human breast cancer cells (surgical sample); conditions: primary breast cancer cells, 24 h; remark: listed apart in the source
Protocol: as §11, §3, §4, §5, §6
(§14) The culture solution for the washing was free from sodium bicarbonate and cooled to 4° C. before use.
(§15) The culture container was then transferred to a cooled dark box. The culture solution was exchanged with a culture solution, to which an FDA-staining agent (FDA concentration: 2-10 μg/ml) which reacts due to esterase activity in live cells had been added, and was shaken for one hour in a refrigerator (10° C.), thus reacting the FDA with the cells.
(§16) The fluorescently colored cells were quantified by image analysis. The image for the image analysis was created using, an inverted fluorescent microscope, a sample holder cooling apparatus (in-house product), an excitatory light irradiation control apparatus, a sample holder driving apparatus and a high-sensitivity cooled CCD camera. The volume was measured on the basis of this image using an image analyzer according to a conventional method. The intensity of the excitatory light was 1×10^3 lux.sec on the sample holder.

[5] = system: human breast cancer cells (surgical sample); conditions: primary breast cancer cells, 24 h; remark: listed apart in the source
Protocol: as §3
(§17) Next, this collagen mixture solution was placed onto a 24-well multiplate at 30 μl/well using a micropipette and gelated to prepare globular collagen gels (for details see Example 1G).
as §4, §5
(§18) After the above-mentioned agent contact step, 0.5 ml of a culture solution was added, and the culture was effected at 37° C. in a 5% carbon dioxide incubator for 7-14 days. The culture solution was exchanged every 1-2 days. The proliferation culture solution as used was a culture solution containing a DF culture solution+10% FBS+5μg/ml insulin (product of Sigma Chemical Co.)+10 ng/ml EGF (EGF: epidermal growth factor, product of Becton Dickinson Labware)+20 ng/ml hydrocortisone (product of Sigma Chemical Co.) (see Example 1H).
(§19) The culture solution was exchanged with a culture solution, to which an FDA-staining agent (FDA concentration: 2-10 μg/ml) which reacts due to esterase activity in live cells had been added, and was shaken for one hour in a refrigerator (10° C.), thus reacting the FDA with the cells.
as §16
(§20) In addition to the conventional known volume measurement by image analysis, the viability of the cells was also measured by quantifying the fluorescence intensity on the image.

[6] = system: human breast cancer cells (surgical sample); conditions: primary breast cancer cells, 24 h; remark: listed apart in the source
Protocol: as §3, §17, §4, §5, §18, §15
(§21) The cultured cell sample as subjected to the fluorescent stain was washed for one hour with a fresh cooled culture solution, thus removing the extracellular fluorescent reagent. The culture solution as used for the washing was a DME culture solution. This solution was further exchanged with a culture solution of 37° C., shaking was performed for one hour in an incubator at 37° C., and the FDA which had reacted in the cells was extracted into the solution. The culture solution was separated off and measured using a fluorospectrophotometer, with an excitatory wavelength of 490 nm and a detection wavelength of 520 nm.

[7] = system: human breast cancer cells (surgical sample); conditions: primary breast cancer cells, 24 h; remark: listed apart in the source
Protocol: as §11, §3, §17, §4, §5, §18
(§22) The culture solution for the washing was a DME culture solution.
(§23) The culture solution was exchanged with a culture solution to which an NR-staining agent had been added (NR concentration: 25-50 μg/ml), and shaking was effected for 2 hours in a carbon dioxide incubator, thus incorporating the NR into the cells.
(§24) After the stain, the culture solution containing the NR was exchanged with PBS (Phosphate Buffered Saline), and the sample was allowed to stand stationary in a room for 10 minutes, thus removing the NR remaining outside of the cells.
(§25) Next, the PBS was exchanged with neutral 10% formalin, and the sample was allowed to stand stationary in a room for 40 minutes, thus fixing the cells and the NR as incorporated into the cells.
(§26) The globular collagen gel to which the cells had been fixed was immersed in distilled water for 10 minutes, thus removing the salts. When the globular collagen gel which had been immersed in the distilled water was air-dried at room temperature, whereby a flat dried product was formed.
(§27) At this time, the cultured cells were fixed in the dried collagen gel while containing the NR.
(§28) The volume of the fixed cells was measured using an image analyzer in the same manner as mentioned above.

[8] = system: human breast cancer cells (surgical sample); assay: Anticancer agent sensitivity, FDA stain, volume by image analysis; conditions: 24 h agent contact; for FDA volume: image analysis; for Effect/control (FDA volume): ratio to control = 1.00
Protocol: as §11, §3, §4, §5, §6, §14, §15, §16

[9] = system: human breast cancer cells (surgical sample); assay: Anticancer agent sensitivity, FDA stain, fluorescence intensity on image; conditions: 24 h agent contact; for FDA image fluorescence units: fluorescence intensity on image; for Effect/control (FDA image fluorescence): ratio to control = 1.00
Protocol: as §3, §17, §4, §5, §18, §19, §16, §20

[10] = system: human breast cancer cells (surgical sample); assay: Anticancer agent sensitivity, Neutral Red stain, volume by image analysis; conditions: 24 h agent contact; for Neutral Red volume: image analysis of fixed, dried gel; for Effect/control (Neutral Red volume): ratio to control = 1.00
Protocol: as §11, §3, §17, §4, §5, §18, §22, §23, §24, §25, §26, §27, §28

[11] = system: human breast cancer cells (surgical sample); assay: Anticancer agent sensitivity, FDA spectrophotofluorimetry of extracted dye; conditions: 24 h agent contact; for FDA spectrophotofluorimetry fluorescence units: excitation 490 nm, detection 520 nm; for Effect/control (FDA spectrophotofluorimetry): ratio to control = 1.00
Protocol: as §3, §17, §4, §5, §18, §15, §21

[12] = system: human breast cancer cells (surgical sample); assay: Anticancer agent sensitivity, globular collagen gel-embedded culture, Alamar Blue fluorescence; conditions: 24 h agent contact; for AlamarBlue fluorescence intensity: excitation 560 nm, detection 590 nm; for Effect/control (AlamarBlue fluorescence): ratio to control = 1.00
Protocol: as §11, §3, §12, §5, §6, §8, §9, §13

[13] = system: human breast cancer cells (surgical sample); assay: Anticancer agent sensitivity, globular collagen gel-embedded culture, Alamar Blue (AB) absorbance; conditions: 24 h agent contact, 7-14 days culture; for AlamarBlue absorbance: 570 nm, reference 600 nm; for Effect/control (AlamarBlue absorbance): ratio to control = 1.00
Protocol: as §1, §2, §3, §4, §5, §6, §7, §8, §9, §10

[14] = system: breast cancer cells (surgical sample from a human cancer patient); assay: Anticancer agent sensitivity, NR extraction method, absorbance; assay type: cell-based; conditions: for Effect/control (Neutral Red absorbance): control = 1.00
Protocol: A test was conducted in the same way as in Example 1, but the image analysis of live cells as stained with the NR was not carried out, and the NR was instead extracted from the live cells, thus measuring the absorbance. A surgical sample (breast cancer) as obtained from a human cancer patient was used as the starting material, and the test was carried out according to the same procedures and methods as in Example 1, except for the procedures of the formalin-fixation, the drying and the image analysis in the pigment stain analysis step. The NR as incorporated into live cells was extracted by dissolving the collagen gel with collagenase in the culture container and then adding an NR extractant, and the absorbance of the resultant extract was measured.

[15] = system: breast cancer cells (surgical sample from a human cancer patient); assay: Anticancer agent sensitivity, MTT assay method, formazane absorbance; assay type: cell-based; conditions: for Effect/control (formazane absorbance): control = 1.00
Protocol: A test was conducted in the same way as in Example 1, but an MTT reagent was substituted for the AB coloring agent in the colorimetric analysis step. A surgical sample (breast cancer) as obtained from a human cancer patient was used as the starting material, and the test was carried out according to the same procedures and methods as in Example 1, except for the procedures subsequent to the colorimetric analysis step. The formazane as deposited in live cells was extracted by dissolving the collagen gel with collagenase in the culture container and then adding a formazane extractant, and the absorbance of the resultant extract was measured, when the deposited fine crystal of formazane was held in the collagen gel, such that results were obtained with good accuracy.

[16] = system: fibroblasts in human lung cancer and human breast cancer samples; assay: Fibroblast proliferation in preliminary culture, microscopic observation; assay type: cell-based; conditions: 10 μg/ml dextran sulfate in serum culture solution, 7 days
Protocol: Thus, an investigation was made with regard to a serum-free culture solution (DF culture solution+5 μg/ml insulin+10 ng/ml EGF+8 ng/ml sodium selenite+10 μg/ml transferrin+5 mg/ml BSA) (BSA: bovine serum albumin) and a serum culture solution containing dextran sulfate (DF culture solution+10% FBS+insulin+EGF+hydrocortisone 10 μg/ml dextran sulfate).
The experimental materials used were the 14 cases of human lung cancer and 12 cases of human breast cancer which had adhered to the bottom of the culture dishes in Example 1A above as controls, and the above-mentioned culture solutions (the serum-free culture solution and the dextran sulfate-containing serum culture solution) were used to culture cells for 7 days.

[17] = 5-FU concentration 0.1 (Cmax = 1)
[18] = 5-FU concentration 0.2 (Cmax = 1)
[19] = 5-FU concentration 0.4 (Cmax = 1)
[20] = 5-FU concentration 0.6 (Cmax = 1)
[21] = 5-FU concentration 0.8 (Cmax = 1)
[22] = 5-FU concentration 1.0 (Cmax = 1)

Compound: TGF-β
- Proliferation state of vascular endothelial cells ([1]; 0 mm from surface of gel 20a): lump
- Proliferation state of vascular endothelial cells ([1]; 1 mm from surface of gel 20a): tree
- Proliferation state of vascular endothelial cells ([1]; 3 mm from surface of gel 20a): lump
- Proliferation state of vascular endothelial cells ([1]; 4 mm from surface of gel 20a): lump

Compound: CO[C@@]12[C@H](COC(N)=O)C3=C(C(=O)C(C)=C(N)C3=O)N1C[C@@H]1N[C@@H]12 [MMC, mitomycin C]
- Effect/control (AlamarBlue absorbance) [2]: 0.42
- Effect/control (AlamarBlue fluorescence) [3]: 0.46
- Effect/control (FDA volume) [4]: 0.33
- Effect/control (FDA image fluorescence) [5]: 0.42
- Effect/control (FDA spectrophotofluorimetry) [6]: 0.46
- Effect/control (Neutral Red volume) [7]: 0.31
- FDA volume [8]: 5.07 10^7 μm^3
- FDA image fluorescence units [9]: 3.26 10^1
- Neutral Red volume [10]: 5.19 10^7 μm^3
- FDA spectrophotofluorimetry fluorescence units [11]: 3.37 10^1
- AlamarBlue fluorescence intensity [12]: 3.24 10^2
- AlamarBlue absorbance [13]: 0.40

Compound: O=c1[nH]cc(F)c(=O)[nH]1 [5-FU, 5fluorouracil]
- Neutral Red absorbance [14, 17]: 0.307
- Effect/control (Neutral Red absorbance) [14, 17]: 0.88
- Neutral Red absorbance [14, 18]: 0.206
- Effect/control (Neutral Red absorbance) [14, 18]: 0.59
- Neutral Red absorbance [14, 19]: 0.123
- Effect/control (Neutral Red absorbance) [14, 19]: 0.35
- Neutral Red absorbance [14, 20]: 0.100
- Effect/control (Neutral Red absorbance) [14, 20]: 0.29
- Neutral Red absorbance [14, 21]: 0.079
- Effect/control (Neutral Red absorbance) [14, 21]: 0.23
- Neutral Red absorbance [14, 22]: 0.072
- Effect/control (Neutral Red absorbance) [14, 22]: 0.21
- Formazane absorbance [15, 17]: 1.036
- Effect/control (formazane absorbance) [15, 17]: 0.88
- Formazane absorbance [15, 18]: 0.774
- Effect/control (formazane absorbance) [15, 18]: 0.66
- Formazane absorbance [15, 19]: 0.599
- Effect/control (formazane absorbance) [15, 19]: 0.51
- Formazane absorbance [15, 20]: 0.515
- Effect/control (formazane absorbance) [15, 20]: 0.44
- Formazane absorbance [15, 21]: 0.450
- Effect/control (formazane absorbance) [15, 21]: 0.38
- Formazane absorbance [15, 22]: 0.429
- Effect/control (formazane absorbance) [15, 22]: 0.37
- Effect/control (AlamarBlue absorbance) [2]: 0.73
- Effect/control (AlamarBlue fluorescence) [3]: 0.71
- Effect/control (FDA volume) [4]: 0.65
- Effect/control (FDA image fluorescence) [5]: 0.62
- Effect/control (FDA spectrophotofluorimetry) [6]: 0.63
- Effect/control (Neutral Red volume) [7]: 0.64
- FDA volume [8]: 9.89 10^7 μm^3
- FDA image fluorescence units [9]: 4.77 10^1
- Neutral Red volume [10]: 10.76 10^7 μm^3
- FDA spectrophotofluorimetry fluorescence units [11]: 4.68 10^1
- AlamarBlue fluorescence intensity [12]: 5.07 10^2
- AlamarBlue absorbance [13]: 0.69

Compound: COc1cc(C2c3cc4c(cc3C(OC3OC5COC(C)OC5C(O)C3O)C3COC(=O)C23)OCO4)cc(OC)c1O (stereo not shown) [VP-16]
- Effect/control (FDA volume) [8]: 0.93
- FDA image fluorescence units [9]: 7.23 10^1
- Effect/control (FDA image fluorescence) [9]: 0.94
- Neutral Red volume [10]: 15.54 10^7 μm^3
- Effect/control (Neutral Red volume) [10]: 0.92
- FDA spectrophotofluorimetry fluorescence units [11]: 6.90 10^1
- Effect/control (FDA spectrophotofluorimetry) [11]: 0.93
- AlamarBlue fluorescence intensity [12]: 6.64 10^2
- Effect/control (AlamarBlue fluorescence) [12]: 0.94
- AlamarBlue absorbance [13]: 0,87
- Effect/control (AlamarBlue absorbance) [13]: 0.91

Compound: dextran sulfate
- proliferation of the fibroblasts [16]: partially suppressed

Compound: CC[C@]1(O)C[C@@H]2CN(CCc3c([nH]c4ccccc34)[C@@](C(=O)OC)(c3cc4c(cc3OC)N(C)[C@H]3[C@@](O)(C(N)=O)[C@H](O)[C@]5(CC)C=CCN6CC[C@]43[C@@H]65)C2)C1 [VDS, vindesine]
- Effect/control (AlamarBlue absorbance) [2]: 0.73
- Effect/control (AlamarBlue fluorescence) [3]: 0.72
- Effect/control (FDA volume) [4]: 0.61
- Effect/control (FDA image fluorescence) [5]: 0.62
- Effect/control (FDA spectrophotofluorimetry) [6]: 0.61
- Effect/control (Neutral Red volume) [7]: 0.60
- FDA volume [8]: 9.25 10^7 μm^3
- FDA image fluorescence units [9]: 4.74 10^1
- Neutral Red volume [10]: 10.10 10^7 μm^3
- FDA spectrophotofluorimetry fluorescence units [11]: 4.52 10^1
- AlamarBlue fluorescence intensity [12]: 5.13 10^2
- AlamarBlue absorbance [13]: 0.69

Compound: [NH2][Pt]([NH2])([Cl])[Cl] [CDDP, cisplatin]
- FDA volume [8]: 5.68 10^7 μm^3
- Effect/control (FDA volume) [8]: 0.37
- FDA image fluorescence units [9]: 3.43 10^1
- Effect/control (FDA image fluorescence) [9]: 0.45
- Neutral Red volume [10]: 6.25 10^7 μm^3
- Effect/control (Neutral Red volume) [10]: 0.37
- FDA spectrophotofluorimetry fluorescence units [11]: 3.50 10^1
- Effect/control (FDA spectrophotofluorimetry) [11]: 0.47
- AlamarBlue fluorescence intensity [12]: 2.66 10^2
- Effect/control (AlamarBlue fluorescence) [12]: 0.38
- AlamarBlue absorbance [13]: 0.40
- Effect/control (AlamarBlue absorbance) [13]: 0.42

Compound: COc1cccc2c1C(=O)c1c(O)c3c(c(O)c1C2=O)C[C@@](O)(C(=O)CO)C[C@@H]3O[C@H]1C[C@H](N)[C@H](O)[C@H](C)O1 [ADM, adriamycin]
- FDA volume [8]: 10.93 10^7 μm^3
- Effect/control (FDA volume) [8]: 0.72
- FDA image fluorescence units [9]: 5.35 10^1
- Effect/control (FDA image fluorescence) [9]: 0.70
- Neutral Red volume [10]: 12.26 10^7 μm^3
- Effect/control (Neutral Red volume) [10]: 0.73
- FDA spectrophotofluorimetry fluorescence units [11]: 5.33 10^1
- Effect/control (FDA spectrophotofluorimetry) [11]: 0.72
- AlamarBlue fluorescence intensity [12]: 4.81 10^2
- Effect/control (AlamarBlue fluorescence) [12]: 0.68
- AlamarBlue absorbance [13]: 0.65
- Effect/control (AlamarBlue absorbance) [13]: 0.68
